Assay results published in patent US11415579B2, “Assay for measuring a rate of reaction between a target and a ligand candidate” (Imperial College Innovations Ltd., priority 2016, dated 2022).

Key:
Cdk2(C177A, F80C) = biological target: T1, Cdk2(C177A, F80C) (Homo sapiens, UniProt P24941, C177A/F80C); experiment: Kinetic thiol consumption assay with Cdk2 mutant F80C, incl. kobs versus concentration (Kd, k2); type: binding; parameters: key to Rate enhancement, Cdk2 F80C: Cdk2 rate constant divided by model-thiol rate constant; conditions: additional mutation C177A; for Rate constant with Cdk2 F80C: Protein: Cdk2, cysteine position F80C, in h^-1
T1 construct: poly-histidine; made in house; host or cells: E. coli
How it was run: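 His-tagged Cdk2(C177A/F80C) from E. coli or model thiol, 5 μM in degassed phosphate buffer pH 8 with TCEP beads, reacted with acrylamide ligands; fluorescence (ex/em 380/470 nm) normalized to DMSO control and fitted to first-order decay for kobs. Kd and k2 obtained from hyperbolic fit of kobs versus ligand concentration.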

Cdk2(S181C) (C177A) = biological target: T2, Cdk2(S181C) (C177A) (Homo sapiens, UniProt P24941, C177A/S181C); experiment: Kinetic thiol consumption assay with Cdk2 mutant S181C; type: binding; parameters: key to Rate enhancement, Cdk2 S181C: rate constant with Cdk2 ÷ rate constant with model thiol (fold); conditions: additional mutation C177A; for Rate constant with Cdk2 S181C: Protein: Cdk2, cysteine position S181C, in h^-1
T2 construct: poly-histidine; made in house; host or cells: E. coli
How it was run: (§1)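 Read-out is fluorescence at 380/470 nm, taken after 1 h at room temperature and normalized to a DMSO/thiol-only control over time. Thiol (5 μM Cdk2 mutant or model thiol) was in degassed pH 8 phosphate buffer with 2% v/v TCEP beads. Acrylamide rate constants for Cdk2 were divided by those with model thiol.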

Cdk2(R122C) (C177A) = biological target: T3, Cdk2(R122C) (C177A) (Homo sapiens, UniProt P24941, C177A/R122C); experiment: Kinetic thiol consumption assay with Cdk2 mutant R122C; type: binding; parameters: key to Rate enhancement, Cdk2 R122C: rate constant with Cdk2 ÷ rate constant with model thiol (fold); conditions: additional mutation C177A; for Rate constant with Cdk2 R122C: Protein: Cdk2, cysteine position R122C, in h-1
T3 construct: poly-histidine; made in house; host or cells: E. coli
How it was run: as §1

Cdk2(S276C) (C177A) = biological target: T4, Cdk2(S276C) (C177A) (Homo sapiens, UniProt P24941, C177A/S276C); experiment: Kinetic thiol consumption assay with Cdk2 mutant S276C; type: binding; parameters: key to Rate enhancement, Cdk2 S276C: rate constant with Cdk2 ÷ rate constant with model thiol (fold); conditions: additional mutation C177A; for Rate constant with Cdk2 S276C: Protein: Cdk2, cysteine position S276C, in h^-1
T4 construct: poly-histidine; made in house; host or cells: E. coli
How it was run: as §1

Cdk2(T182C) (C177A) = biological target: T5, Cdk2(T182C) (C177A) (Homo sapiens, UniProt P24941, C177A/T182C); experiment: Kinetic thiol consumption assay with Cdk2 mutant T182C; type: binding; parameters: key to Rate enhancement, Cdk2 T182C: rate constant with Cdk2 ÷ rate constant with model thiol (fold); conditions: additional mutation C177A; for Rate constant with Cdk2 T182C: Protein: Cdk2, cysteine position T182C, in h^-1
T5 construct: poly-histidine; made in house; host or cells: E. coli
How it was run: as §1

Cdk2(H71C) (C177A) = biological target: T6, Cdk2(H71C) (C177A) (Homo sapiens, UniProt P24941, C177A/H71C); experiment: Kinetic thiol consumption assay with Cdk2 mutant H71C; type: binding; parameters: key to Rate enhancement, Cdk2 H71C: rate constant with Cdk2 ÷ rate constant with model thiol (fold); conditions: additional mutation C177A; for Rate constant with Cdk2 H71C: Protein: Cdk2, cysteine position H71C, in h^-1
T6 construct: poly-histidine; made in house; host or cells: E. coli
How it was run: as §1

[1] = biological target: T7, human cyclin-dependent kinase 2 (Cdk2) (Homo sapiens, UniProt P24941); experiment: Kinetic thiol consumption assay with wild type Cdk2 (C177); type: binding; parameters: key to Rate enhancement, Cdk2 WT: k(Cdk2) divided by k(model thiol); Rate constant with Cdk2 (k(Cdk2)): unit not given here; conditions: for Rate constant with Cdk2 (k(Cdk2)): 500 μM ligand, 5 μM thiol, phosphate buffer pH 8; for Rate enhancement, Cdk2 WT: no additional mutations; for Rate constant with Cdk2 WT: Protein: Cdk2, cysteine position WT, in h^-1; for k(Cdk2)/k(Cdk2_mut) rate enhancement: model thiol Cdk2[C177A, F80C, K278C]; for k(Cdk2)/k(GSH) rate enhancement: model thiol glutathione
T7 construct: poly-histidine; made in house; host or cells: E. coli
How it was run: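 Thiol 5 μM (Cdk2 or model thiol), degassed phosphate buffer pH 8, TCEP beads 2% v/v. Plates incubated 1 h RT, ex/em 380/470 nm. First-order decay fit → rate constant; ratio Cdk2/model thiol = rate enhancement.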

[2] = Kinetic thiol consumption assay with model thiol glutathione; type: physicochemical; parameters: Rate constant with glutathione (k(GSH)): unit not given here; conditions: for Rate constant with glutathione (k(GSH)): 500 μM ligand, 5 μM thiol, phosphate buffer pH 8; for Rate constant with Glutathione: Protein: Glutathione, cysteine position NA, in h-1
How it was run: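 GSH 5 μM, degassed phosphate buffer pH 8, TCEP beads 2% v/v; acrylamide added; RT, 1 h; fluorescence ex/em 380/470 nm; normalized to DMSO/thiol control; k from first-order exponential decay fit.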

Cdk2(N272C) (C177A) = biological target: T8, Cdk2(N272C) (C177A) (Homo sapiens, UniProt P24941, C177A/N272C); experiment: Kinetic thiol consumption assay with Cdk2 mutant N272C; type: binding; parameters: key to Rate enhancement, Cdk2 N272: rate constant with Cdk2 ÷ rate constant with model thiol (fold); conditions: for Rate enhancement, Cdk2 N272: Cdk2 N272, additional mutation C177A; for Rate constant with Cdk2 N272C: Protein: Cdk2, cysteine position N272C, additional mutation C177A, in h^-1
T8 construct: poly-histidine; made in house; host or cells: E. coli
How it was run: as §1

Cdk2[C177A, F80C, K278C] = biological target: T9, Cdk2[C177A, F80C, K278C] (Homo sapiens, UniProt P24941, C177A/F80C/K278C); experiment: Kinetic thiol consumption assay with mutant Cdk2 as model thiol; type: binding; parameters: unit not given here; conditions: 500 μM ligand, 5 μM thiol, phosphate buffer pH 8
T9 construct: poly-histidine; made in house; host or cells: E. coli
How it was run: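 First-order rate constants were derived by exponential-decay fitting of DMSO/thiol-normalized fluorescence (380/470 nm) over time at room temperature. Thiol was 5 μM E. coli-expressed His-tagged Cdk2 mutant C177A/F80C/K278C in degassed pH 8 phosphate buffer containing 2% v/v TCEP beads.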

Rate enhancement, Cdk2 F80C (Cdk2(C177A, F80C))	Rate constant with Cdk2 F80C (Cdk2(C177A, F80C))	Rate enhancement, Cdk2 S181C (Cdk2(S181C) (C177A))	Rate enhancement, Cdk2 R122C (Cdk2(R122C) (C177A))	Rate constant with Cdk2 R122C (Cdk2(R122C) (C177A))	Rate enhancement, Cdk2 S276C (Cdk2(S276C) (C177A))	Rate constant with Cdk2 S276C (Cdk2(S276C) (C177A))	Rate enhancement, Cdk2 T182C (Cdk2(T182C) (C177A))	Rate constant with Cdk2 T182C (Cdk2(T182C) (C177A))	Rate enhancement, Cdk2 H71C (Cdk2(H71C) (C177A))	Rate constant with Cdk2 (k(Cdk2)) [1]	Rate enhancement, Cdk2 WT [1]	Rate constant with Cdk2 WT [1]	k(Cdk2)/k(Cdk2_mut) rate enhancement [1]	k(Cdk2)/k(GSH) rate enhancement [1]	Rate enhancement, Cdk2 N272 (Cdk2(N272C) (C177A))	Rate constant with Cdk2 N272C (Cdk2(N272C) (C177A))	Rate constant with Cdk2[C177A, F80C, K278C] (k(Cdk2_mut)) (Cdk2[C177A, F80C, K278C])	Structure (SMILES)	Rate constant with glutathione (k(GSH)) [2]	Rate constant with Glutathione [2]	other results
2.208	0.06488	10.57	0.7583	0.02228	20.94	0.6153	11.73	0.3446	7.662	0.2235	7.607	0.2235	3.034	12.04	7.192	0.2113	0.07366	C=CC(=O)N(Cc1ccc2c(c1)CCO2)C1CCCC1 [CA-184]	0.01856	0.02938	Rate constant with Cdk2 S181C (Cdk2(S181C) (C177A)): 0.3106; Rate constant with Cdk2 H71C (Cdk2(H71C) (C177A)): 0.2251; hit classification, Example 1 ([1]; hits defined as kCdk2/kGSH>5.8 (3 standard deviations over the mean)): hit fragments
0.6901	0.001062	1.1306E−11	0.125	0.0001923	0.7693	0.001184	0.679	0.001045	2.5393E−11	0.0019	1.86	0.002863	1.136	1.213	1.006	0.001549	0.00167	C=CC(=O)NCc1ccc(F)cc1 [BN-62]	0.00157	0.001539	Rate constant with Cdk2 S181C (Cdk2(S181C) (C177A)): 1.74E−14; Rate constant with Cdk2 H71C (Cdk2(H71C) (C177A)): 3.908E−14

More lines, now with the values behind:

Structure (SMILES)	Rate enhancement, Cdk2 F80C (Cdk2(C177A, F80C))	Rate constant with Cdk2 F80C (Cdk2(C177A, F80C))	Rate enhancement, Cdk2 S181C (Cdk2(S181C) (C177A))	Rate enhancement, Cdk2 R122C (Cdk2(R122C) (C177A))	Rate constant with Cdk2 R122C (Cdk2(R122C) (C177A))	Rate enhancement, Cdk2 S276C (Cdk2(S276C) (C177A))	Rate constant with Cdk2 S276C (Cdk2(S276C) (C177A))	Rate enhancement, Cdk2 T182C (Cdk2(T182C) (C177A))	Rate constant with Cdk2 T182C (Cdk2(T182C) (C177A))	Rate enhancement, Cdk2 H71C (Cdk2(H71C) (C177A))	Rate constant with Cdk2 (k(Cdk2)) [1]	Rate enhancement, Cdk2 WT [1]	Rate constant with Cdk2 WT [1]	k(Cdk2)/k(Cdk2_mut) rate enhancement [1]	k(Cdk2)/k(GSH) rate enhancement [1]	Rate enhancement, Cdk2 N272 (Cdk2(N272C) (C177A))	Rate constant with Cdk2 N272C (Cdk2(N272C) (C177A))	Rate constant with Cdk2[C177A, F80C, K278C] (k(Cdk2_mut)) (Cdk2[C177A, F80C, K278C])	Rate constant with glutathione (k(GSH)) [2]	Rate constant with Glutathione [2]	other results
C=CC(=O)N(CC(=O)NC1CC1)C1CC1 [CA-031]	0.02876	0.0005005	0.5614	0.221	0.003846	0.5294	0.009212	1.063	0.01849	0	0.00688	0.1766	0.003072	1.479	0.4081	1.169	0.02034	0.00466	0.01687	0.0174	Rate constant with Cdk2 S181C (Cdk2(S181C) (C177A)): 0.009769
C=CC(=O)NC1C2C3CCC(C3)C12 (stereo not shown) [CA-097]	0.1887	0.001856	0	0.3499	0.003442	0.8141	0.008009	1.447	0.01424	0.1566	0.00152	0.1544	0.001519	0.3735	0.2854	0.5898	0.005802	0.00407	0.00533	0.009838	Rate constant with Cdk2 H71C (Cdk2(H71C) (C177A)): 0.001541
C=CC(=O)NC1C[C@@H](C(=C)C)CC=C1C (stereo partly shown) [EL-1074]	0.4555	0.004669	0.214	0.322	0.0033	0.4274	0.004381	1.829	0.01875	0.248	0.003	0.5934	0.006082	0.8773	0.3421	0.6473	0.006635	0.00342	0.00876	0.01025	Rate constant with Cdk2 S181C (Cdk2(S181C) (C177A)): 0.002194; Rate constant with Cdk2 H71C (Cdk2(H71C) (C177A)): 0.002542
